Activity calls are given as the source filed them.
Assays:
[1] = inhibitors of Bluetongue virus cytopathic effect, confirmation, arbovirus, BSR cells (AID 1250); assay type: functional;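 also: protection from viral cytopathic effect measured as cell viability by ATP luminescence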
HEK293 = test: Fluorescence-based counterscreen for potentiators or agonists of NPY-Y2: cell-based high-throughput dose response assay to identify inhibitors of cyclic nucleotide gated ion channel (CNGC) activity. In this assay, the parental HEK293 cell line transfected with a cyclic-nucleotide gated ion channel (CNGC)-based cAMP sensor is used to measure inhibition of isoproterenol-induced CNGC activity by test compound.; assay type: functional; conditions: Homo sapiens;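 also: stimulus is 1 µM isoproterenol at EC100 plus PDE inhibitor Ro 20-1724 at 25 µM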
[2] = biological target: T1, Neuropeptide Y receptor type 1 (Homo sapiens, UniProt P25929); test: Fluorescence-based counterscreen for agonists of NPY-Y2: cell-based high-throughput dose response assay for agonists of NPY-Y1.; assay type: functional
T1 sequence (P25929 whole entry): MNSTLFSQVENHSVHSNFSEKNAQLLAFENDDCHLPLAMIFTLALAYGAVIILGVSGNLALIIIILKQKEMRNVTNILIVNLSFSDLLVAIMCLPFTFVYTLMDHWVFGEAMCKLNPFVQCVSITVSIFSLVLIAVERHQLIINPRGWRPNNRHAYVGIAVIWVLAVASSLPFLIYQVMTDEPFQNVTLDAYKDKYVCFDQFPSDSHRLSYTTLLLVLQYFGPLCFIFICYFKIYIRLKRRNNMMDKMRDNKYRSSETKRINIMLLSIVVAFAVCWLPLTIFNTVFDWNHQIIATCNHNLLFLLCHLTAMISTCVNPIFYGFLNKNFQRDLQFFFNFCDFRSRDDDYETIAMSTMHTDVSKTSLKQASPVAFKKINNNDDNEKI

[3] = biological target: T2, Neuropeptide Y receptor type 2 (Homo sapiens, UniProt P49146); test: Fluorescence-based cell-based high-throughput dose response assay for agonists of NPY-Y2. [Related pubchem assays: 1703 (Screening assay (CNGC inhibitors).), 1359 (Screening assay (NPY-Y2 potentiators or agonists).), 1304 (Screening assay (NPY-Y1 potentiators or agonists).), 1710 (Screening assay (NPY-Y2 agonists).), 1791 (Summary AID.)]; assay type: functional
T2 sequence (P49146 whole entry): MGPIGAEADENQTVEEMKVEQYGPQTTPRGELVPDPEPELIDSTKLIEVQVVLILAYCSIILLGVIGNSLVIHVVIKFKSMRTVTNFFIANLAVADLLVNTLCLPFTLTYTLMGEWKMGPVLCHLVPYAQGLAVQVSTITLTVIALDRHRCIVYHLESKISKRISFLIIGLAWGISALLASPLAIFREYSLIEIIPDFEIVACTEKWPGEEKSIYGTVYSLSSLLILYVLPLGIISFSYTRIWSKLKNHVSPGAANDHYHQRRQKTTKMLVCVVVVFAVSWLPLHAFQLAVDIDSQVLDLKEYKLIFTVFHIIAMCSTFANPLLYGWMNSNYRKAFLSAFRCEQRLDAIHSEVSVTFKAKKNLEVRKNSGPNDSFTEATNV

Wee1-like protein kinase = Wee1-like protein kinase (Homo sapiens, UniProt P30291); test: Dose Response Cell-based Assay for Inhibitors of Wee1 Degradation. [Related pubchem assays: 1410, 1321 ]; assay type: functional
Wee1-like protein kinase, sequence (P30291 whole entry): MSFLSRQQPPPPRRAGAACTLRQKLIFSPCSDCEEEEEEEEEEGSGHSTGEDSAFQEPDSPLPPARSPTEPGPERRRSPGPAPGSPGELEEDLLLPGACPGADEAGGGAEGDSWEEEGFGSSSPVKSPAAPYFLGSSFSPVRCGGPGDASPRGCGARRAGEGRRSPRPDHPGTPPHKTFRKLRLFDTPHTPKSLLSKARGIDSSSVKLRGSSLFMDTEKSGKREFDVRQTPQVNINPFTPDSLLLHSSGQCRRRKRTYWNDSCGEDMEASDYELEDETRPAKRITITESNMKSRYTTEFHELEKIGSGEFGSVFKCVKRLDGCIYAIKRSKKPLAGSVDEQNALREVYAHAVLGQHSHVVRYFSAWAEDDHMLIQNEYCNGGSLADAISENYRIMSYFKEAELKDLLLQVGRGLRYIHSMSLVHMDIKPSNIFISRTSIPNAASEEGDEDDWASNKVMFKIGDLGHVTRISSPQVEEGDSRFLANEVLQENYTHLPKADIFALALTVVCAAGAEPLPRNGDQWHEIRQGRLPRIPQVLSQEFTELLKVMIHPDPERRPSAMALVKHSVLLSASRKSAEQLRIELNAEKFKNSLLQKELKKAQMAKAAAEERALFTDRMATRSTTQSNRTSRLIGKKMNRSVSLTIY

[4] = biological target: G2/mitotic-specific cyclin-B1 (Homo sapiens, UniProt P14635); test: Counterscreen assay for inhibitors of Wee1 degradation: dose response cell-based assay to identify inhibitors of cyclin B degradation. [Related pubchem assays: 1410, 1321 ]; assay type: functional
G2/mitotic-specific cyclin-B1, sequence (P14635 whole entry): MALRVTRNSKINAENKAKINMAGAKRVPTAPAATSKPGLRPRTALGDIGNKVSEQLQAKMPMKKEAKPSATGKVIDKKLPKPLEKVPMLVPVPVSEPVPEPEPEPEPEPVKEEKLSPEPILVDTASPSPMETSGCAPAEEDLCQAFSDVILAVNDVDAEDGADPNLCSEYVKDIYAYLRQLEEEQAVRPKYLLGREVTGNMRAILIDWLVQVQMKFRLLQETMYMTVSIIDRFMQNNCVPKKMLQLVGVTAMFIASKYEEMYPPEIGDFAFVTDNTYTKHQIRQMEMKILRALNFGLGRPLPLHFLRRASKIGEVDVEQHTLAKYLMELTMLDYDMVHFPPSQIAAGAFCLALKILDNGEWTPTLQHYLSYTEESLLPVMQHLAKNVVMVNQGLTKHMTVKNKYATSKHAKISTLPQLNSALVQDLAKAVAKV

[5] = Luminescence Cell-Based Dose Response HTS to Identify Inhibitors of 5'UTR Stem-Loop Driven Prion Protein mRNA Translation in H4 Neuroglioblastoma Cells. [Related pubchem assays: 1827 (Project Summary), 1813 (Primary HTS)]; assay type: functional
Phospholipase A2 = Phospholipase A2 (Homo sapiens, UniProt P04054); assay type: functional;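 also: confirmatory dose-response counterscreen on phospholipase A2, testing hits that came from an ultra-high-throughput screen for ATG4B inhibitors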
Phospholipase A2, sequence (P04054 whole entry): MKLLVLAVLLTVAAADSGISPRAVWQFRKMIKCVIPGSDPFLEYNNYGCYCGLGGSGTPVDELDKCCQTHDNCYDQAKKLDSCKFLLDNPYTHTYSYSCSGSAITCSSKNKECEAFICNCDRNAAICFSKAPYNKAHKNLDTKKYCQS

Cysteine protease ATG4B = biological target: T3, Cysteine protease ATG4B (Homo sapiens, UniProt Q9Y4P1); assay type: functional;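 also: Fluorescence-based dose-response confirmation assay measuring inhibition of ATG4B activity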
T3 sequence (Q9Y4P1 whole entry): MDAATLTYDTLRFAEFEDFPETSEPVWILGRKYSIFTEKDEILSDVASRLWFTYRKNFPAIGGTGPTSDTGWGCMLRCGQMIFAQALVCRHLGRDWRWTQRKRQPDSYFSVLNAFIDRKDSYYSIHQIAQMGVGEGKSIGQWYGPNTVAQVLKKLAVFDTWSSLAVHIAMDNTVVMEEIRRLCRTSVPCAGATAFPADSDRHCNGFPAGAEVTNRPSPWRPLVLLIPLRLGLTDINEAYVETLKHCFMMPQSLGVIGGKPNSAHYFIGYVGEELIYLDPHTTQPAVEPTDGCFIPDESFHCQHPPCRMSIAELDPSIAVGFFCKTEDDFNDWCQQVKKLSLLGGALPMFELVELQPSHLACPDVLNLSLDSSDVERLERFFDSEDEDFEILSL

[6] = inhibitors of SNCA 5'UTR-driven reporter translation, confirmation, H4 neuroglioma cells, luminescence (AID 1988); assay type: functional, cell-based
[7] = inhibitors of firefly luciferase expression or activity, dose response, H4 neuroglioma cells, luminescence (AID 1990); assay type: functional, cell-based
[8] = HEK293 cell cytotoxicity, dose response, cytotoxicity control, plate reader, cherry-picked samples (AID 743446); assay type: functional, cell-based
[9] = LGR2 antagonists, dose response, cell-based, HEK293, CRE-luciferase reporter, cherry pick, set 2 (AID 743343); assay type: functional;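 also: transfected cells were stimulated with diluted bursicon conditioned medium after compound addition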
Estrogen receptor = biological target: T4, Estrogen receptor (Homo sapiens, UniProt P03372); test: potentiators of ERα–SRC-1 coactivator binding, dose response, biochemical, TR-FRET, ERα LBD (AID 737)
T4 sequence (P03372 whole entry): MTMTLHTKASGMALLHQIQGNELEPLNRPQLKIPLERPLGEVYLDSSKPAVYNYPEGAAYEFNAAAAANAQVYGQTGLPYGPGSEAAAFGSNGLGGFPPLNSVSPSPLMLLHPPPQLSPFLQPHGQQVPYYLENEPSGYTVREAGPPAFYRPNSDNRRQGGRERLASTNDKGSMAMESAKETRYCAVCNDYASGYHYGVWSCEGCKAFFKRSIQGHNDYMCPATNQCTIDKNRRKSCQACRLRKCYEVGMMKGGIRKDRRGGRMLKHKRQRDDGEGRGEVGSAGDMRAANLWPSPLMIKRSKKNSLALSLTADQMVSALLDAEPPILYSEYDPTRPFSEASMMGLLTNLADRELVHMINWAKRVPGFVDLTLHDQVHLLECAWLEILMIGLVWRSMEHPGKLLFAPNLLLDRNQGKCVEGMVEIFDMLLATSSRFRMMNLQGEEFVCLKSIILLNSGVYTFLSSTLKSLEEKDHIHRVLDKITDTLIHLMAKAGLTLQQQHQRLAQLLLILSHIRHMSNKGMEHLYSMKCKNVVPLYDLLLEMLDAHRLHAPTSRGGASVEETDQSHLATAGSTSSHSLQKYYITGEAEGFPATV

[10] = HepG2 cell cytotoxicity, dose response, cytotoxicity control, plate reader, cherry-pick, antagonist series (AID 743416); assay type: functional, cell-based
[11] = MC4R antagonists, dose response, counter-screen for LGR2 antagonist project, cell-based, plate reader, cherry pick (AID 743444); assay type: functional;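 also: transfected HEK 293 cells stimulated with alpha-MSH peptide; potency of inhibitors of the alpha-MSH evoked signal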

CN(Cc1ccccc1NC(=O)c1ccc(S(=O)(=O)N(C)C)cc1)C1CCCCC1
IC50 [1]: 29.9 µM (active)

Cc1ccc(Cl)cc1NC(=O)c1cc2ccccc2cc1O
EC50 (HEK293): > 35.4 µM (not active) | EC50 [2]: 17.1 µM (not active) | EC50 [3]: 15.1 µM (not active)

CCCC1=Nc2cc(C(=O)NCc3ccco3)ccc2Sc2ccccc21
EC50 (Wee1-like protein kinase): > 49.7 µM (not active) | EC50 [4]: > 49.7 µM (not active) | EC50 [5]: 11.4 µM (active) | IC50 (Phospholipase A2): 6.93 µM (active) | IC50 (Cysteine protease ATG4B): 15.2 µM (active) | EC50 [6]: 8.6 µM (active) | EC50 [7]: 11.1 µM (inconclusive)

C1COCCO1.O=C(Nc1nc(-c2ccc(S(=O)(=O)N3CCOCC3)cc2)cs1)c1ccccc1
AC50 [8]: > 52 µM (inactive) | AC50 [9]: 42 µM (active) | EC50 (Estrogen receptor): 15.1 µM (active) | AC50 [10]: 36.7 µM (active) | AC50 [11]: 44.3 µM (active)

From ChEMBL document CHEMBL1201862, “PubChem BioAssay data set” (2004)
